From paper PMC9631755, “Development of AB3-Type Novel Phthalocyanine and Porphyrin Photosensitizers Conjugated with Triphenylphosphonium for Higher Photodynamic Efficacy” (ACS Omega, 2022)
Read-outs that look alike come from different tables or passages of the source.

Key:
BEAS-2B cells = assay: MTT cell viability of BEAS-2B cells, dark and 660 nm light irradiation; assay type: cell-based
Description: (§1) A549 and BEAS-2B cells were obtained from ATCC with reference numbers CCL-185 and CRL-9609, respectively. A549 cells were cultured in DMEM (with 2 mM L-glutamine, Gibco, United States), while RPMI 1640 (with 2 mM L-glutamine, Gibco, United States) was used for BEAS-2B cells. Both media were supplemented with 10% fetal bovine serum (FBS) (Gibco, United States), and cells were cultured in an incubator with a humidified atmosphere of 5% CO2 at 37 °C.[24]
(§2) For the evaluation of cytotoxic activity, an MTT assay was employed. Cells were seeded 1 day prior to treatment in 96-well plates at a concentration of 20,000 cells/mL. Followed by overnight incubation, the cells were exposed to LuPcPox(OAc), AB3TPP-Pc, AB3TPP-Por-C4, PP-Por-C6, H2TPP, and ZnPc molecules. All molecules were dispersed in DMSO. The working concentrations of the molecules contain <0.1% (v/v) of DMSO. Time-point assays were performed after 24 and 48 h. The final concentration of MTT was 0.5 mg/mL, and after 3 h incubation, absorbances were measured at 545 nm. The absorbance of the blank group which was the samples containing media with 10% FBS was subtracted from the measurements and cell viability was determined by the following formula.[52] The control group was composed of nontreated cells. Cell viability (%) = (absorbance value of sample/absorbance value of control) × 100.
(§3) The cells seeded at a concentration of 20,000 cells/mL in the 96-well plates were irradiated at 660 nm using an LED light array producing a flux of 0.036 J cm^–2 s^–1 (0.036 W/cm^2). In order to determine the cytotoxic effects of Pcs under light, one group of each cell line was exposed to an LED array for 30 min at room temperature and then returned to the incubator, while another group was incubated in the dark.[24] The delivered red photons on the cells were measured by a calibrated PAR meter (Apogee SQ-520). The temperature of the chamber under continuous light flux was monitored synchronously for ensuring the stability of the conditions.[53]
(§4) The cells were seeded at a concentration of 20,000 cells/mL on 96-well plates and incubated for 24 h. The Pcs were added in 0.1, 2.5, 5, 10, 25, and 50 μM concentrations for evaluating the toxicity with/without light except for LuPcPox(OAc). The LuPcPox(OAc) was added into the wells as 0.01, 0.03, 0.09, 0.25, 0.50, and 1 μM concentration because a concentration over 1.0 μM kills the cells immediately. The Pcs in the cell media were discarded, and a fresh medium was added to the cells to remove noninternalized molecules. The viability of the cells was recorded for 24 and 48 h after the addition of Pcs. The cells were irradiated for 30 min.
(§5) IC50 values of the Pcs were determined by fitting the cell’s viability curve acquired from the spectroscopic data. All the values were obtained by using Origin Software (Figure 7).

[1] = Fluorescence quantum yield, comparative method; assay type: physicochemical; settings: THF
Description: Excitation spectra in the Q-band region have been obtained by monitoring the fluorescence emission spectra at the indicated wavelength of porphyrins and phthalocyanine compounds. The fluorescence quantum yields (ΦF) of all structures were determined in THF, using a comparative method. The values were 0.009, 0.14, 0.13, and 0.13, for LuPcPox(OAc), AB3TPP-Pc, AB3TPP-Por-C4, and AB3TPP-Por-C6, respectively. The lowest ΦF value 0.009 belongs to LuPcPox(OAc) and is close to the value (0.004) obtained in DMSO in our previous study.[24] This could be the result of the higher atomic number of lutetium in the cavity of phthalocyanine which may facilitate intersystem crossing to its excited triplet state after excitation. However, the difference and purpose of this study from our previous work are to examine whether there will be a change in the fluorescence property with the addition of the mitochondria targeting the TPP group to the structure. We achieved this goal. The ΦF value of AB3TPP-Pc was 0.14, although it was lower than the reference molecule (ZnPc ΦF= 0.25),[43] and the presence of the TPP group on the structure increased the fluorescence efficiency approximately 15 times that of LuPcPox(OAc) ΦF = 0.009. […] The normalized absorption, excitation, and emission spectra for all compounds are shown in Figure 3, and ΦF values are given in Table 2.

[2] = Singlet-oxygen quantum yield, direct method (phosphorescence); assay type: physicochemical; settings: for ΦΔ singlet-oxygen quantum yield: THF
Description: For PDT, tumor cells are killed by ROS that is produced by a photosensitizer; thus, the production of ^1O2 by the photosensitizer plays a vitally important role in PDT.[46] To evaluate the photosensitizing properties of novel macrocyclic structures, singlet-oxygen quantum yields have been evaluated by a direct method in THF. Singlet-oxygen phosphorescence spectra for all compounds excited with a xenon-arc source at their respective absorption maxima were recorded by a near-IR-sensitive detector. ZnPc and H2TPP were used as the standard for phthalocyanine and porphyrin derivatives that have singlet oxygen yields of 0.53[47] and 0.58[33],[34] in THF, respectively. Singlet-oxygen phosphorescence spectra of Pc and Por. derivatives in THF at equal absorbance (0.23) were obtained to directly determine ΦΔ (Figures S20 and S21). […] Apparently, AB3TPP-Pc is almost three times as efficient as LuPcPox(OAc) in producing singlet oxygen, matching well with our proposal that the TPP-conjugated phthalocyanine could serve as an ideal candidate for mitochondrial-targeted PDT reagent.

[3] = UV-vis absorption, extinction coefficient at 660 nm; assay type: physicochemical; settings: 2 × 10^–6 M in THF
Description: In our study, the Lambert–Beer law indicating a linear relationship between absorbance and concentrations was obeyed for all porphyrin and phthalocyanine compounds in dimethylsulfoxide (DMSO) in the whole 2–8 μM concentration measurement range (Figure 2). The UV–vis spectra of macrocyclic compounds were recorded in both DMSO and tetrahydrofuran (THF), solvents in which all compounds are soluble (Figures S13–S19). […] This diverse absorption behavior of complexes comes from their different subunits which are isoindoles and pyrroles in the skeleton of macrocycles for phthalocyanine and porphyrin, respectively.[40],[41]Table 1 summarizes the wavelengths and associated extinction coefficients in Q and Soret (B) bands in DMSO.

A549 cells = assay: MTT cell viability of A549 cells, dark and 660 nm light irradiation; assay type: cell-based; settings: for IC50: 24 h
Description: as §1, §2, §3, §4, §5

[4] = Fluorescence lifetime, TCSPC; assay type: physicochemical; settings: THF, mono-exponential decay
Description: Luminescence lifetime measurements were performed on a fluorescence spectroscopy Fluorolog-3 (HORIBA Jobin Yvon) system in the single-photon counting (TCSPC) mode. A NanoLED light source (HORIBA Jobin Yvon) of λmax 390 nm was used for 395 nm excitation. All measurements were carried out in 0.2 ab. solutions in THF at room temperature. […] AB3TPP-Pc and LuPcPox(OAc) show a biexponential decay. The short-lived species are due to component features τf of 2.54 ns (responsible for 35.78%) and τf of 2.14 ns (responsible for 32.47%) photons emitted by AB3TPP-Pc and LuPcPox(OAc), respectively. The longer lifetime has a τf of 4.77 ns (assume 64.22%) and 3.11 ns (assume 67.53%) of emission for AB3TPP-Pc and LuPcPox(OAc), respectively.

[5] = reference substance; cited from earlier work
[6] = THF, standard; cited from earlier work
[7] = Homo sapiens, A549, light (660 nm, 30 min)
[8] = Homo sapiens, dark, 24 h, read-out: IC50
[9] = Homo sapiens, light (660 nm, 30 min), 24 h, read-out: IC50

Compound	ΦF fluorescence quantum yield [1]	ΦΔ singlet-oxygen quantum yield [2]	log ε (660 nm) [3]	IC50 (A549 cells; Homo sapiens, A549, dark) [µM]	IC50 (A549 cells; [7]) [µM]	IC50 (BEAS-2B cells; [8]) [µM]	IC50 (BEAS-2B cells; [9]) [µM]	τF fluorescence lifetime [4] [ns]	other results
COCCOCCOCCSc1cc2c(cc1SCCOCCOCCOC)-c1nc-2nc2[nH]c(nc3nc(nc4[nH]c(n1)c1cc(SCCOCCOCCOC)c(SCCOCCOCCOC)cc41)-c1cc(SCCOCCOCCOC)c(SCCOCCOCCOC)cc1-3)c1cc(SCCCCCCOCCCCCC[P+](c3ccccc3)(c3ccccc3)c3ccccc3)ccc21 [AB3TPP-Pc]	0.14	0.75	4.18						cytotoxic concentration (BEAS-2B cells; dark, 24 and 48 h): < 6 µM; IC50 (BEAS-2B cells; light, 48 h, read-out: IC50 (cytotoxic concentration)): 2.4 µM; increase of fluorescence efficiency over LuPcPox(OAc) [1]: approximately 15 times; singlet oxygen-producing capacity compared to LuPcPox(OAc) [2]: ~3 times; singlet oxygen-producing capacity, more efficient with respect to ZnPc [2]: 50%
COc1ccc(-c2c3nc(c(-c4ccc(OC)cc4)c4ccc([nH]4)c(-c4ccc(OCCCCCC[P+](c5ccccc5)(c5ccccc5)c5ccccc5)cc4)c4nc(c(-c5ccc(OC)cc5)c5ccc2[nH]5)C=C4)C=C3)cc1 [AB3TPP-Por-C6]	0.13	0.58	3.56	24.9	3.6	10.3	< 0.1	8.91	reduction of cell viability compared to AB3Por-C4 (phototoxicity) (A549 cells; A549): 2 fold; reduction of cell viability compared to H2TPP (phototoxicity) (A549 cells; A549): 5 fold; critical concentration (decrease in viability) (A549 cells; A549, after light irradiation, 24 and 48 h): 2.5 µM
COc1ccc(-c2c3nc(c(-c4ccc(OC)cc4)c4ccc([nH]4)c(-c4ccc(OCCCC[P+](c5ccccc5)(c5ccccc5)c5ccccc5)cc4)c4nc(c(-c5ccc(OC)cc5)c5ccc2[nH]5)C=C4)C=C3)cc1 [AB3TPP-Por-C4]	0.13	0.57	3.43	> 50	10.3	11.5	< 0.1	8.87	increase of toxicity under light compared to the dark (from IC50) (A549 cells; A549): 2 fold; cytotoxicity (in words) (A549 cells; A549, dark, up to 48 h): noncytotoxic
[Zn+2].c1ccc2c(c1)-c1nc-2nc2[n-]c(nc3nc([n-]c4nc(n1)-c1ccccc1-4)-c1ccccc1-3)c1ccccc21 [ZnPc, zinc (II)phthalocyanine, reference compound]								2.72	
Tetraphenylporphyrin [H2TPP, reference compound]	0.13	0.58						10.3	IC50 (A549 cells; A549, dark): 19.7 µM; IC50 (A549 cells; A549, light (660 nm, 30 min)): 19.7 µM; IC50 (BEAS-2B cells; dark, 24 h, read-out: IC50): 12.1 µM; IC50 (BEAS-2B cells; light (660 nm, 30 min), 24 h, read-out: IC50): 6.8 µM; ΦF fluorescence quantum yield [5]: 0.13; ΦΔ singlet-oxygen quantum yield [6]: 0.58
